The values below come from the OPERA property sets (Mansouri et al. 2018).

Values after ≈ are worked out from the molar mass of the structure shown.

Details in one data set: not given
For the compound `CC1CCc2cc(F)cc3c(=O)c(C(=O)O)cn1c23` (stereo not drawn), the logP (as a rule, the decadic logarithm of the partition coefficient of the neutral form, usually between octanol and water) amounted to 1.6. `C=CC(=O)NCCN(C)C`: the logP is -0.25. `Brc1cc(Br)c(Oc2c(Br)c(Br)c(Br)c(Br)c2Br)cc1Br` came in with a logP of 8.71. The compound `Nc1ncnc2c1ncn2Cc1ccccc1` gave a logP of 1.7.

On to `CCCCCCCCCCCCCCCCCCCCCC(=O)O`, for which the solubility – broadly, how much of the substance goes into solution per volume – was found to be 4.7e-05 mM (≈ 0.016 µg/mL). This lies in the double-digit nanomolar range. The compound `O=[N+]([O-])c1cc(Cl)cc(Cl)c1` registered a logP of 3.09. For the compound `O=C(O)c1ccccc1Nc1cccc(Cl)c1`, the logP was found to be 5.43.

The compound `COc1ccc(N)c(S(=O)(=O)O)c1` showed a logP of -3.49.

For `CC(C)(C)[N+]([O-])=Cc1ccc(F)cc1`, the logP was determined as 1.42.

`CCCCNC(=O)CCC(NS(=O)(=O)c1ccc(C)cc1)C(=O)O` (stereo not drawn) displayed a logP of 0. `Cc1cccc2[nH]ccc12` gave a logP of 2.54. Turning to `Clc1ccc(-c2ccccc2Cl)cc1Cl`, the logP is 5.87. In turn, `O=C1c2ccccc2C(=O)C1C(=O)C(c1ccccc1)c1ccccc1` yielded a logP of 4.27. In turn, `Oc1c(O)c(Cl)c(Cl)c(Cl)c1Cl` registered a solubility of 0.0109 mM (≈ 2.7 µg/mL). Take `Cc1ccc2cc3ccccc3cc2c1`: the log partition coefficient (logP) stood at 5. In turn, `COc1ccc(OCCN(C)C)cc1` came in with a logP of 1.23. `CN(C)C1CSSC1` gave a solubility of 13.4 mM (≈ 2000 µg/mL).

Take `Clc1ccc(Nc2cc3nc4ccccc4n(-c4ccc(Cl)cc4)c-3cc2=NCCCN2CCCCC2)cc1`: the logP amounted to 8.18.

`CC(C)c1ccc2c(c1)CC[C@H]1[C@](C)(C(=O)O)CCC[C@]21C` showed a logP of 4.8 and a solubility of 0.022 mM (≈ 6.6 µg/mL). Compound `O=C(O)c1cc(Oc2ccc(C(F)(F)F)cc2Cl)ccc1[N+](=O)[O-]` showed a logP of 3.7. Take `CCC1CCCCC1`: the logP was 4.56. As to `CC1=NS(=O)(=O)c2cnccc2N1`, the logP was -0.41. Regarding `CCCC(CCC)=NNC(N)=Nc1ccccc1`, the logP was determined as 2.33.

`NS(=O)(=O)c1cc2cc(CNCCF)sc2o1` had a logP of 0.34. `CCOc1cc(C=O)ccc1O` came in with a logP of 1.58. On to `Clc1cc2c(Cl)ccc(Cl)c2c(Cl)c1Cl`, for which the lipophilicity (logP) was found to be 6.8. On the same count and under the same terms, the value for `Cc1ccc(N)cc1C` was 1.84. Turning to `C[N+](C)(C)CC1CCCC1.[I-]`, the logP is -2.

Turning to `CC(CCC(=O)NCC(=O)O)C1CCC2C3CCC4CC(O)CCC4(C)C3CC(O)C12C` (stereo not drawn), the logP is 2.25.

The data set is the same for the next values; noted with them: 20 °C.
In turn, `CCC(CC)C(=O)O` returned a solubility of 155 mM (≈ 18000 µg/mL). Turning to `O=C1OC2(c3ccc(O)cc3Oc3cc(O)ccc32)c2ccccc21`, the solubility was determined as 0.15 mM (≈ 50 µg/mL).

The data set is the same for the next values; noted with them: 22 °C.
Turning to `CCCCC(CC)COC(=O)CCCCC(=O)OCC(CC)CCCC` (stereo not drawn), the solubility worked out at 0.0021 mM (≈ 0.78 µg/mL).

The data set is the same for the next values; noted with them: 22.0 °C.
For the compound `CCCCCCl`, the log10 OH rate constant (cm³/molecule/s) is -11.5.

Staying with this data set, now noted: 24 °C.
For `O=NN1CCCCCC1`, the solubility was 99.9 mM (≈ 12800 µg/mL). The compound `CC1CN(N=O)CC(C)O1` (stereo not drawn) registered a solubility of 860 mM (≈ 124000 µg/mL).

The data set is the same for the next values; noted with them: 25 °C.
As to `CCCCOCCOC(=O)COc1ccc(Cl)cc1Cl`, the solubility was 0.0374 mM (≈ 12 µg/mL). That is a double-digit micromolar value. In turn, `Cc1cc(C)c(C)c(O)c1` gave a solubility of 5.59 mM (≈ 762 µg/mL).

Consider `COc1cc(Cl)ccc1O`, for which the solubility was 31.5 mM (≈ 5000 µg/mL). Compound `CC(C)(C)c1ccc(O)c(O)c1` gave a solubility of 12 mM (≈ 2000 µg/mL). Take `CC(C)C(O)C(C)(C)CO` (stereo not drawn): the solubility turned out to be 130 mM (≈ 19000 µg/mL). Compared with the last compound, the solubility is about 11-fold higher. As for `CCCCN(CC)C(=O)SCCC`, the solubility stood at 0.492 mM (≈ 100 µg/mL). `Nc1nc[nH]n1` gave a solubility of 3330 mM (≈ 280000 µg/mL). For the compound `OCC#CCO`, the solubility is 4340 mM (≈ 374000 µg/mL).

On to `Nc1ccc2cc3ccccc3cc2c1`, for which the solubility turned out to be 0.00673 mM (≈ 1.3 µg/mL).

Still in this data set, the particulars now being: 25.0 °C.
For `O=C/C=C/C=O`, the log10 OH rate constant (cm³/molecule/s) is -10.4. For the compound `COC(F)(C(F)(F)F)C(F)(F)F`, the log10 OH rate constant (cm³/molecule/s) was -13.8.

`Cc1cc2ccccc2cc1C`: the log10 OH rate constant (cm³/molecule/s) was -10.2. Take `CCCCCBr`: the log10 OH rate constant (cm³/molecule/s) is -11.4.

`FC(F)(F)I` displayed a log10 OH rate constant (cm³/molecule/s) of -13.3.

The compound `CC(C)c1ccc(NC(=O)N(C)C)cc1` gave a log10 OH rate constant (cm³/molecule/s) of -10.9. In turn, `FC1(F)OC(F)(F)C1(F)F` had a log10 OH rate constant (cm³/molecule/s) of under -15.7.

The same data set, now with this note: 27.0 °C.
With `CC(=O)N(C)C`, the log10 OH rate constant (cm³/molecule/s) is -10.9.
